≈ marks a conversion by molar mass, not a printed value.

The term MIC denotes the least concentration at which growth counts as inhibited. Read a low MIC as greater potency.

Common to all, as to test: Antifungal activity test (in vitro), MIC
Common to all, as to format: cell-based

Experiment [1] concerns Trichophyton mentagrophytes ATCC 9533. As to conditions: ATCC9533.
Experiment [2] concerns Cryptococcus neoformans ATCC 24067. As to conditions: ATCC24067.
Experiment [3] relates to Pityrosporum ovale ATCC 38593. The following applies: Malassezia furfur, ATCC38593.
Experiment [4] relates to Microsporum canis ATCC 36299. The following applies: ATCC36299.
For experiment [5], the system named is Candida albicans ATCC 10231. The following applies: ATCC10231.
The test system of experiment [6] is Aspergillus fumigatus ATCC 1028. The following applies: ATCC1028.

In the case of `C[C@@H](N1CCC(c2ccccn2)CC1)[C@](O)(Cn1cncn1)c1ccc(F)cc1F` [I-1, (2R,3R)-2-(2,4-difluorophenyl)-3-(4-pyridin-2-ylpiperidin-1-yl)-1-(1,2,4-triazol-1-yl)butan-2-ol], the MIC in experiment [1] came to 0.3 µg/mL (≈ 0.726 µM); in experiment [2], 0.1 µg/mL (≈ 0.242 µM); in experiment [3], 0.3 µg/mL (≈ 0.726 µM); in experiment [4], 0.3 µg/mL (≈ 0.726 µM); in experiment [5], 0.3 µg/mL (≈ 0.726 µM); in experiment [6] it was 10 µg/mL (≈ 24.2 µM).

With `C[C@@H](N1CC=C(c2ccccn2)CC1)[C@](O)(Cn1cncn1)c1ccc(F)cc1F` [I-3, (2R,3R)-2-(2,4-difluorophenyl)-3-(3′,6′-dihydro-2,4′-bipyridin-1′(2′H)-yl)-1-(1,2,4-triazol-1-yl)butan-2-ol], the MIC in experiment [1] turned out to be 0.1 µg/mL (≈ 0.243 µM); in experiment [2] it was 0.3 µg/mL (≈ 0.729 µM); in experiment [3], 0.003 µg/mL (≈ 0.00729 µM); in experiment [4], 0.03 µg/mL (≈ 0.0729 µM); in experiment [5] it was 0.3 µg/mL (≈ 0.729 µM); in experiment [6], 1 µg/mL (≈ 2.43 µM).

As for `C[C@@H](N1CC=C(c2ccc(Cl)cn2)CC1)[C@](O)(Cn1cncn1)c1ccc(F)cc1F` [I-6, (2R,3R)-3-(5-chloro-3′,6′-dihydro-2,4′-bipyridin-1′(2′H)-yl)-2-(2,4-difluorophenyl)-1-(1,2,4-triazol-1-yl)butan-2-ol], the MIC in experiment [1] stood at 0.1 µg/mL (≈ 0.224 µM); in experiment [2] it was 0.03 µg/mL (≈ 0.0673 µM); in experiment [3] it was 0.003 µg/mL (≈ 0.00673 µM); in experiment [4], 0.3 µg/mL (≈ 0.673 µM); in experiment [5], 0.01 µg/mL (≈ 0.0224 µM); in experiment [6], 1 µg/mL (≈ 2.24 µM).

The record behind these values is patent US7973056B2, “Triazole derivative or salt thereof” (Fujifilm Finechemicals Co., Ltd, priority 2008, dated 2011).
